Measurements published in patent US10941132B2, “Pyrazole derivatives” (HUA MEDICINE (SHANGHAI) Ltd., priority 2016, dated 2021).

Each compound was assayed against T1, recombinant rat mGluR5 (Rattus norvegicus, UniProt P31424) (assay: Functional calcium flux assay (FLIPR), antagonist evaluation against glutamate-evoked [Ca2+]i increase). Conditions: Table 1; HEK293 cells stably expressing recombinant rat mGluR5; 15 min incubation of test compound, then submaximal glutamate; read-out: IC50 value (FLIPR assay).
T1 construct: expressed in transfected cells
T1 sequence (P31424 21-1203): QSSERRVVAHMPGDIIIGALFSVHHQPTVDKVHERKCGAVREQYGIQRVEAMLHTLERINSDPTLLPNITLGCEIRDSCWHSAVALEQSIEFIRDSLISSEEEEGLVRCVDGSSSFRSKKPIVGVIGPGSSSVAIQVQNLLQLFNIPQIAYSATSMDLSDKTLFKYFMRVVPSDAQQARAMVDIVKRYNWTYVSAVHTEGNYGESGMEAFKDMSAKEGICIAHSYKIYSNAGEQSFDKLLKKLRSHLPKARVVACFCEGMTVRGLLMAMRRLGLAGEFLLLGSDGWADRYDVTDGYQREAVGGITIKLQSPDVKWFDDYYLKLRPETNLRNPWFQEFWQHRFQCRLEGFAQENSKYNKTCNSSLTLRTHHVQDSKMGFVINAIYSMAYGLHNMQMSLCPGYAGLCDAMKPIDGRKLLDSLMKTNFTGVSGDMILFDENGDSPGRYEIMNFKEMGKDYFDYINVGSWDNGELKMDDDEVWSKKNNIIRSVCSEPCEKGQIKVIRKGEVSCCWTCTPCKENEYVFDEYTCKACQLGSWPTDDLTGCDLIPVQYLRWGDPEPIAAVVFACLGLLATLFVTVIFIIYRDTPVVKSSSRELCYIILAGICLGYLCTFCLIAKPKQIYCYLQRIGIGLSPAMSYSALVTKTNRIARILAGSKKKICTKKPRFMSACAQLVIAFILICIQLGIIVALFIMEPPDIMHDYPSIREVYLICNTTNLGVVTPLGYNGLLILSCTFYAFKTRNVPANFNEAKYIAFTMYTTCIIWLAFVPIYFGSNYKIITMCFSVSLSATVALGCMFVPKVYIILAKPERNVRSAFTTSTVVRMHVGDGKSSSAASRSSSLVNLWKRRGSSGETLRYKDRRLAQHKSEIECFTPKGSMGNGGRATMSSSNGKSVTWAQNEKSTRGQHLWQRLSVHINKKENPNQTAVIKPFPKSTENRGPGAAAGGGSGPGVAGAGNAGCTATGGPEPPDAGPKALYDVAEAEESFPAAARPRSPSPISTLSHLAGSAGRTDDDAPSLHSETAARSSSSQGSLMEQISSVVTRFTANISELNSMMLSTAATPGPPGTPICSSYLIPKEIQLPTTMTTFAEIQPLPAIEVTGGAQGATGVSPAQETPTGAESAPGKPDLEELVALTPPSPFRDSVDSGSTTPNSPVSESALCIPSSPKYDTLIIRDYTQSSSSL
Format: cell-based
Experimental: Functional Calcium Clux Assay Methodology
For functional assays, HEK293 cells stably expressing recombinant rat mGluR5 were seeded in 384-well plates and dye loaded using Fluo-8. Cells were then washed to remove the un-incorporated dye. Antagonist evaluation was performed following a 15 min incubation of the test compound followed by the addition of submaximal concentration of glutamate. Intracellular calcium ([Ca^2+]i) measurements were performed using a fluorometric imaging plate reader (FLIPR, Molecular Devices). The glutamate-evoked increase in [Ca^2′]i in the presence of the test compounds was compared to the response to glutamate alone (the positive control). Antagonist inhibition curves were fitted with a 4-parameter logistic equation giving IC50 values, and Hill coefficients using an iterative nonlinear curve fitting algorithm.
The tables below provide IC50 data in this assay. In the activity column, A=IC50>1,000 and ≤5,000 nM; B=IC50>500 and ≤1,000 nM and C=IC50≤500 nM.

IC50 | SMILES
1000 to 5000 nM | FC(F)(F)Oc1ccc(-n2cc(C#Cc3cccnc3)cn2)cc1 [Compound 91, 3-((1-(4-(trifluoromethoxy)phenyl)-H-pyrazol-4-yl)ethynyl)pyridine]
1000 to 5000 nM | N#Cc1cc(F)cc(-n2cc(C#Cc3cccnc3)cn2)c1 [Compound 76, 3-fluoro-5-(4-(pyridin-3-ylethynyl)-1H-pyrazol-1-yl)benzonitrile]
≤ 500 nM | COc1nn(-c2ccc(F)cc2)cc1C#Cc1ccccn1 [Compound 52, 2-((1-(4-fluorophenyl)-3-methoxy-1H-pyrazol-4-yl)ethynyl)pyridine]
≤ 500 nM | FC(F)(F)Oc1ccc(-n2ncc(C#Cc3ncccn3)c2Cl)cc1 [Compound 22]
≤ 500 nM | Cc1nn(-c2ccc(OC(F)(F)F)cc2)c(C)c1C#Cc1ccccn1 [Compound 4, 2-((3,5-dimethyl-1-(4-(trifluoromethoxy)phenyl)-H-pyrazol-4-yl)ethynyl)pyridine]
≤ 500 nM | N#Cc1cc(F)cc(-n2cc(C#Cc3ccccn3)c(OCCO)n2)c1 [Compound 48, 3-fluoro-5-(3-(2-hydroxyethoxy)-4-(pyridin-2-ylethynyl)-1H-pyrazol-1-yl)benzonitrile]
≤ 500 nM | FC(F)(F)Oc1ccc(-n2cc(C#Cc3cccc(Cl)c3)cn2)cc1 [Compound 92, 4-((3-chlorophenyl)ethynyl)-1-(4-(trifluoromethoxy)phenyl)-1H-pyrazole]
1000 to 5000 nM | Cc1nn(-c2ccc(OC(F)(F)F)cc2)c(C(F)(F)F)c1C#Cc1ccccn1 [Compound 13, 2-((3-methyl-1-(4-(trifluoromethoxy)phenyl)-5-(trifluoromethyl)-1H-pyrazol-4-yl)ethynyl) pyridine]
≤ 500 nM | FC(F)(F)c1ccc(-n2ncc(C#Cc3ccccn3)c2Cl)cc1 [Compound 35, 2-((5-chloro-1-(4-(trifluoromethyl)phenyl)-1H-pyrazol-4-yl)ethynyl)pyridine]
≤ 500 nM | FC(F)(F)Oc1ccc(-n2ncc(C#Cc3ccccn3)c2Cl)cc1 [Compound 21]
≤ 500 nM | Fc1ccc(-n2ncc(C#Cc3ncccn3)c2Cl)cc1 [Compound 17]
1000 to 5000 nM | Cc1nn(-c2cc(F)cc(C#N)c2)c(C(F)(F)F)c1C#Cc1ccccn1 [Compound 11, 3-fluoro-5-(3-methyl-4-(pyridin-2-ylethynyl)-5-(trifluoromethyl)-1H-pyrazol-1-yl)benzonitrile]
≤ 500 nM | Cc1nn(-c2ccc(OC(F)(F)F)cc2)c(C)c1C#Cc1ncccn1 [Compound 14, 2-((3,5-dimethyl-1-(4-(trifluoromethoxy)phenyl)-1H-pyrazol-4-yl)ethynyl) pyrimidine]
1000 to 5000 nM | FC(F)(F)Oc1ccc(-n2cc(C#Cc3ccccc3)cn2)cc1 [Compound 89, 4-(phenylethynyl)-1-(4-(trifluoromethoxy)phenyl)-1H-pyrazole]
≤ 500 nM | FC(F)(F)Oc1ccc(-n2cc(C#Cc3ccccn3)cn2)cc1 [Compound 90, 2-((1-(4-(trifluoromethoxy)phenyl)-1H-pyrazol-4-yl)ethynyl)pyridine]
≤ 500 nM | Fc1ccc(-n2ncc(C#Cc3ncccn3)c2Cl)cn1 [Compound 19, 2-((5-chloro-1-(6-fluoropyridin-3-yl)-1H-pyrazol-4-yl)ethynyl)pyrimidine]

IC50 | SMILES
≤ 500 nM | N#Cc1cc(F)cc(-n2cc(C#Cc3ncccn3)cn2)c1 [Compound 78, 3-fluoro-5-(4-(pyrimidin-2-ylethynyl)-1H-pyrazol-1-yl) benzonitrile]
≤ 500 nM | Fc1ccc(-n2cc(C#Cc3ccccn3)c(Cl)n2)cc1 [Compound 42, 2-((3-chloro-1-(4-fluorophenyl)-1H-pyrazol-4-yl)ethynyl)pyridine]
≤ 500 nM | COCCOc1c(C#Cc2ccccn2)cnn1-c1ccc(F)cc1 [Compound 56]
1000 to 5000 nM | CN(C)CCOc1nn(-c2cc(F)cc(C#N)c2)cc1C#Cc1ccccn1 [Compound 53, 3-(3-(2-(dimethylamino)ethoxy)-4-(pyridin-2-ylethynyl)-1H-pyrazol-1-yl)-5-fluorobenzonitrile]
≤ 500 nM | FC(F)(F)c1ccc(-n2ncc(C#Cc3ncccn3)c2Cl)cc1 [Compound 36, 2-((5-chloro-1-(4-(trifluoromethyl)phenyl)-1H-pyrazol-4-yl)ethynyl) pyrimidine]
≤ 500 nM | Cc1nn(-c2ccc(F)cn2)cc1C#Cc1ccccn1 [Compound 63, 5-fluoro-2-(3-methyl-4-(pyridin-2-ylethynyl)-1H-pyrazol-1-yl)]
1000 to 5000 nM | COc1c(C#Cc2ccccn2)c(C)nn1-c1ccc(OC(F)(F)F)cc1 [Compound 10, 2-((3-methyl-5-methoxy-1-(4-(trifluoromethoxy)phenyl)-1H-pyrazol-4-yl)ethynyl) pyridine]
≤ 500 nM | COc1c(C#Cc2ccccn2)c(C)nn1-c1ccc(F)cc1 [Compound 9, 2-((1-(4-fluorophenyl)-5-methoxy-3-methyl-1H-pyrazol-4-yl)ethynyl)pyridine]
≤ 500 nM | FC(F)(F)Oc1ccc(-n2cc(C#Cc3ccccn3)c(Cl)n2)cc1 [Compound 40, 2-((3-chloro-1-(4-(trifluoromethoxy)phenyl)-1H-pyrazol-4-yl)ethynyl)pyridine]
≤ 500 nM | Fc1ccc(-n2cc(C#Cc3cccnc3)cn2)cc1 [Compound 83, 3-((1-(4-fluorophenyl)-1H-pyrazol-4-yl)ethynyl)pyridine]
≤ 500 nM | COc1nn(-c2ccc(OC(F)(F)F)cc2)c(C)c1C#Cc1ccccn1 [Compound 7, 2-((3-methoxy-5-methyl-1-(4-(trifluoromethoxy)phenyl)-1H-pyrazol-4-yl)ethynyl)pyridine]
≤ 500 nM | N#Cc1cc(F)cc(-n2cc(C#Cc3ccccn3)c(C3CC3)n2)c1 [Compound 54, 3-(3-cyclopropyl-4-(pyridin-2-ylethynyl)-1H-pyrazol-1-yl)-5-fluorobenzonitrile]
≤ 500 nM | N#Cc1cc(F)cc(-n2cc(C#Cc3ccccn3)c(OC(F)F)n2)c1 [Compound 47, 3-(3-(difluoromethoxy)-4-(pyridin-2-ylethynyl)-1H-pyrazol-1-yl)-5-fluorobenzonitrile]
≤ 500 nM | Fc1cncc(-n2cc(C#Cc3ccccn3)cn2)c1 [Compound 33]
≤ 500 nM | COc1c(C#Cc2ccccn2)cnn1-c1ccc(F)cn1 [Compound 62, 5-fluoro-2-(5-methoxy-4-(pyridin-2-ylethynyl)-1H-pyrazol-1-yl)]
≤ 500 nM | Fc1ccc(-n2cc(C#Cc3ccccn3)cn2)cc1 [Compound 82, 2-((1-(4-fluorophenyl)-1H-pyrazol-4-yl)ethynyl)pyridine]

Same assay, conditions: Table 2; HEK293 cells stably expressing recombinant rat mGluR5; 15 min incubation of test compound, then submaximal glutamate; read-out: IC50 (FLIPR assay)

IC50 | SMILES
1000 to 5000 nM | FC(F)(F)Oc1ccc(-n2ccc(C#Cc3ncccn3)n2)cc1 [Compound 123, 2-((1-(4-(trifluoromethoxy)phenyl)-1H-pyrazol-3-yl)ethynyl) pyrimidine]
1000 to 5000 nM | N#Cc1cc(F)cc(-n2ccc(C#Cc3ccccc3)n2)c1 [Compound 104]
≤ 500 nM | Fc1ccc(-n2ccc(C#Cc3ccccn3)n2)cc1 [Compound 112, 2-((1-(4-fluorophenyl)-1H-pyrazol-3-yl)ethynyl)pyridine]
≤ 500 nM | Cc1cc(C#Cc2ccccn2)nn1-c1ccc(F)cc1 [Compound 126]
1000 to 5000 nM | FC(F)(F)Oc1ccc(-n2ccc(C#Cc3cccnc3)n2)cc1 [Compound 121, 3-((1-(4-(trifluoromethoxy)phenyl)-1H-pyrazol-3-yl)ethynyl) pyridine]
1000 to 5000 nM | N#Cc1cc(F)cc(-n2ccc(C#Cc3cccnc3)n2)c1 [Compound 106, 3-fluoro-5-(3-(pyridin-3-ylethynyl)-1H-pyrazol-1-yl)benzonitrile]
≤ 500 nM | Cc1cc(C#Cc2ccccn2)nn1-c1ccc(F)cn1 [Compound 73, 5-fluoro-2-(5-methyl-3-(pyridin-2-ylethynyl)-1H-pyrazol-1-yl)]
1000 to 5000 nM | Fc1ccc(-n2ccc(C#Cc3cnccn3)n2)cc1 [Compound 119, 2-((1-(4-fluorophenyl)-H-pyrazol-3-yl)ethynyl)pyrazine]
≤ 500 nM | Fc1ccc(-n2ccc(C#Cc3ccnc(Cl)c3)n2)cc1 [Compound 116, 2-chloro-4-((1-(4-fluorophenyl)-1H-pyrazol-3-yl)ethynyl)pyridine]
≤ 500 nM | Fc1ccc(-n2ccc(C#Cc3ccncc3)n2)cc1 [Compound 118, 4-((1-(4-fluorophenyl)-1H-pyrazol-3-yl)ethynyl)pyridine]
≤ 500 nM | N#Cc1cc(F)cc(-n2ccc(C#Cc3ccnc(Cl)c3)n2)c1 [Compound 108, 3-(3-((2-chloropyridin-4-yl)ethynyl)-1H-pyrazol-1-yl)-5-fluorobenzonitrile]
500 to 1000 nM | Fc1ccc(-n2cc(Cl)c(C#Cc3ccccn3)n2)nc1 [Compound 69, 2-(4-chloro-3-(pyridin-2-ylethynyl)-1H-pyrazol-1-yl)-5-fluoropyridine]
500 to 1000 nM | Fc1ccc(-n2ccc(C#Cc3cccc(Cl)c3)n2)cc1 [Compound 115, 3-((3-chlorophenyl)ethynyl)-1-(4-fluorophenyl)-1H-pyrazole]
1000 to 5000 nM | FC(F)(F)Oc1ccc(-n2ccc(C#Cc3cnccn3)n2)cc1 [Compound 125, 2-((1-(4-(trifluoromethoxy)phenyl)-1H-pyrazol-3-yl)ethynyl) pyrazine]
1000 to 5000 nM | Cc1cc(C#Cc2ncccn2)nn1-c1ccc(OC(F)(F)F)cc1 [Compound 133, 2-((5-methyl-1-(4-(trifluoromethoxy)phenyl)-1H-pyrazol-3-yl)ethynyl)pyrimidine]
